Data published in patent US20100298141A1, “SUBSTITUTED PYRIDINE N-OXIDE HERBICIDES” (E. I. DU PONT DE NEMOURS AND COMPANY, priority 2007, published 2010).

Columns and labels:
Experiment in all cases: Test F preemergence test
[1] = test system: green foxtail; type: in vivo, Setaria viridis; settings: scale 0 to 100
Procedure, shortened: (§1)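 Compound in a non-phytotoxic solvent blend with surfactant is applied preemergence to planted seeds or postemergence to sugarcane plants. Plants and controls stay in the greenhouse 14 to 21 days before visual comparison.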

[2] = test system: bermudagrass; type: in vivo, Cynodon dactylon; settings: scale 0 to 100
Procedure, shortened: as §1

[3] = test system: mustard; type: in vivo, Brassica nigra; settings: scale 0 to 100
Procedure, shortened: as §1

[4] = test system: prickly sida; type: in vivo, Sida spinosa; settings: scale 0 to 100
Procedure, shortened: as §1

[5] = test system: large crabgrass; type: in vivo, Digitaria sanguinalis; settings: scale 0 to 100
Procedure, shortened: as §1

[6] = test system: annual bluegrass; type: in vivo, Poa annua; settings: scale 0 to 100
Procedure, shortened: as §1

[7] = test system: pitted morningglory; type: in vivo, Ipomoea lacunosa; settings: scale 0 to 100
Procedure, shortened: as §1

[8] = test system: Canada horseweed; type: in vivo, Conyza canadensis; settings: scale 0 to 100
Procedure, shortened: as §1

[9] = test system: southern sandbur; type: in vivo, Cenchrus echinatus; settings: scale 0 to 100; for Sandbur plant response rating: preemergence; for Plant response rating, Sandbur: Preemergence
Procedure, shortened: as §1

[10] = test system: quackgrass; type: in vivo, Elytrigia repens; settings: scale 0 to 100
Procedure, shortened: as §1

[11] = test system: guineagrass; type: in vivo, Panicum maximum; settings: scale 0 to 100
Procedure, shortened: as §1

[12] = test system: field bindweed; type: in vivo, Convolvulus arvensis; settings: scale 0 to 100
Procedure, shortened: as §1

[13] = test system: common chickweed; type: in vivo, Stellaria media; settings: scale 0 to 100
Procedure, shortened: as §1

[14] = test system: common mallow; type: in vivo, Malva sylvestris; settings: scale 0 to 100
Procedure, shortened: as §1

[15] = test system: common ragweed; type: in vivo, Ambrosia elation; settings: scale 0 to 100; for Ragweed plant response rating: preemergence; for Plant response rating, Ragweed: Preemergence
Procedure, shortened: as §1

[16] = test system: common purslane; type: in vivo, Portulaca oleracea; settings: scale 0 to 100
Procedure, shortened: as §1

[17] = test system: naked crabgrass; type: in vivo, Digitaria nuda; settings: scale 0 to 100
Procedure, shortened: as §1

[18] = test system: Surinam grass; type: in vivo, Brachiaria decumbens; settings: scale 0 to 100; for Surinam Grass plant response rating: preemergence; for Plant response rating, Surinam Grass: Preemergence
Procedure, shortened: as §1

[19] = test system: Italian ryegrass; type: in vivo, Lolium multiflorum; settings: scale 0 to 100; for Ryegrass, Italian plant response rating: preemergence; for Plant response rating, Ryegrass, Italian: Preemergence
Procedure, shortened: as §1

[20] = test system: barnyardgrass; type: in vivo, Echinochloa crus-galli; settings: scale 0 to 100
Procedure, shortened: as §1

CCc1cc[n+]([O-])c(S(=O)(=O)Cc2c(C(F)(F)F)nn(C)c2OCC(F)(F)F)c1 [Compound 60]
Foxtail, Green plant response rating ([1]; 62 g ai/ha, Preemergence): 75 | Foxtail, Green plant response rating ([1]; 125 g ai/ha, preemergence): 100 | Foxtail, Green plant response rating ([1]; 250 g ai/ha, preemergence): 100 | Plant response rating, Foxtail, Green ([1]; Preemergence, 31 g ai/ha): 15 | Bermudagrass plant response rating ([2]; 62 g ai/ha, Preemergence): 80 | Bermudagrass plant response rating ([2]; 125 g ai/ha, preemergence): 100 | Bermudagrass plant response rating ([2]; 250 g ai/ha, preemergence): 100 | Plant response rating, Bermudagrass ([2]; Preemergence, 31 g ai/ha): 20 | Black Mustard plant response rating ([3]; 62 g ai/ha, Preemergence): 60 | Black Mustard plant response rating ([3]; 125 g ai/ha, preemergence): 100 | Black Mustard plant response rating ([3]; 250 g ai/ha, preemergence): 100 | Plant response rating, Black Mustard ([3]; Preemergence, 31 g ai/ha): 0 | Prickly Sida plant response rating ([4]; 62 g ai/ha, Preemergence): 40 | Prickly Sida plant response rating ([4]; 125 g ai/ha, preemergence): 75 | Prickly Sida plant response rating ([4]; 250 g ai/ha, preemergence): 75 | Plant response rating, Prickly Sida ([4]; Preemergence, 31 g ai/ha): 0 | Crabgrass, Large plant response rating ([5]; 62 g ai/ha, Preemergence): 98 | Crabgrass, Large plant response rating ([5]; 125 g ai/ha, preemergence): 100 | Crabgrass, Large plant response rating ([5]; 250 g ai/ha, preemergence): 100 | Plant response rating, Crabgrass, Large ([5]; Preemergence, 31 g ai/ha): 0 | Bluegrass plant response rating ([6]; 62 g ai/ha, Preemergence): 50 | Bluegrass plant response rating ([6]; 125 g ai/ha, preemergence): 90 | Bluegrass plant response rating ([6]; 250 g ai/ha, preemergence): 100 | Plant response rating, Bluegrass ([6]; Preemergence, 31 g ai/ha): 35 | Morningglory plant response rating ([7]; 62 g ai/ha, Preemergence): 0 | Morningglory plant response rating ([7]; 125 g ai/ha, preemergence): 70 | Morningglory plant response rating ([7]; 250 g ai/ha, preemergence): 100 | Plant response rating, Morningglory ([7]; Preemergence, 31 g ai/ha): 0 | Horseweed plant response rating ([8]; 62 g ai/ha, Preemergence): 100 | Horseweed plant response rating ([8]; 125 g ai/ha, preemergence): 100 | Horseweed plant response rating ([8]; 250 g ai/ha, preemergence): 100 | Plant response rating, Horseweed ([8]; Preemergence, 31 g ai/ha): 95 | Sandbur plant response rating ([9]; 125 g ai/ha): 100 | Sandbur plant response rating ([9]; 250 g ai/ha): 100 | Plant response rating, Sandbur ([9]; 62 g ai/ha): 65 | Plant response rating, Sandbur ([9]; 31 g ai/ha): 20 | Quackgrass plant response rating ([10]; 62 g ai/ha, Preemergence): 75 | Quackgrass plant response rating ([10]; 125 g ai/ha, preemergence): 90 | Quackgrass plant response rating ([10]; 250 g ai/ha, preemergence): 100 | Plant response rating, Quackgrass ([10]; Preemergence, 31 g ai/ha): 30 | Guineagrass plant response rating ([11]; 62 g ai/ha, Preemergence): 100 | Guineagrass plant response rating ([11]; 125 g ai/ha, preemergence): 100 | Guineagrass plant response rating ([11]; 250 g ai/ha, preemergence): 100 | Plant response rating, Guineagrass ([11]; Preemergence, 31 g ai/ha): 35 | Field Bindweed plant response rating ([12]; 62 g ai/ha, Preemergence): 30 | Field Bindweed plant response rating ([12]; 125 g ai/ha, preemergence): 50 | Field Bindweed plant response rating ([12]; 250 g ai/ha, preemergence): 70 | Plant response rating, Field Bindweed ([12]; Preemergence, 31 g ai/ha): 0 | Chickweed plant response rating ([13]; 62 g ai/ha, Preemergence): 100 | Chickweed plant response rating ([13]; 125 g ai/ha, preemergence): 100 | Chickweed plant response rating ([13]; 250 g ai/ha, preemergence): 100 | Plant response rating, Chickweed ([13]; Preemergence, 31 g ai/ha): 100 | Mallow plant response rating ([14]; 62 g ai/ha, Preemergence): 75 | Mallow plant response rating ([14]; 125 g ai/ha, preemergence): 100 | Mallow plant response rating ([14]; 250 g ai/ha, preemergence): 100 | Plant response rating, Mallow ([14]; Preemergence, 31 g ai/ha): 0 | Ragweed plant response rating ([15]; 125 g ai/ha): 75 | Ragweed plant response rating ([15]; 250 g ai/ha): 100 | Plant response rating, Ragweed ([15]; 62 g ai/ha): 65 | Plant response rating, Ragweed ([15]; 31 g ai/ha): 0 | Purslane plant response rating ([16]; 62 g ai/ha, Preemergence): 0 | Purslane plant response rating ([16]; 125 g ai/ha, preemergence): 25 | Purslane plant response rating ([16]; 250 g ai/ha, preemergence): 60 | Plant response rating, Purslane ([16]; Preemergence, 31 g ai/ha): 0 | Crabgrass, Naked plant response rating ([17]; 62 g ai/ha, Preemergence): 100 | Crabgrass, Naked plant response rating ([17]; 125 g ai/ha, preemergence): 100 | Crabgrass, Naked plant response rating ([17]; 250 g ai/ha, preemergence): 100 | Plant response rating, Crabgrass, Naked ([17]; Preemergence, 31 g ai/ha): 20 | Surinam Grass plant response rating ([18]; 125 g ai/ha): 100 | Surinam Grass plant response rating ([18]; 250 g ai/ha): 100 | Plant response rating, Surinam Grass ([18]; 62 g ai/ha): 90 | Plant response rating, Surinam Grass ([18]; 31 g ai/ha): 80 | Ryegrass, Italian plant response rating ([19]; 125 g ai/ha): 90 | Ryegrass, Italian plant response rating ([19]; 250 g ai/ha): 100 | Plant response rating, Ryegrass, Italian ([19]; 62 g ai/ha): 75 | Plant response rating, Ryegrass, Italian ([19]; 31 g ai/ha): 75 | Barnyardgrass plant response rating ([20]; 62 g ai/ha, Preemergence): 100 | Barnyardgrass plant response rating ([20]; 125 g ai/ha, preemergence): 100 | Barnyardgrass plant response rating ([20]; 250 g ai/ha, preemergence): 100 | Plant response rating, Barnyardgrass ([20]; Preemergence, 31 g ai/ha): 65
